Entries after “also recorded” stand apart in the source; their conditions may differ.
What was measured:
de novo regenerated SGs = assay: De novo SG regeneration from the wound bed after full thickness excision wounds; assay type: in vivo, mice; settings: for size and maturation of regenerated SGs: regenerating skin after wounding
Protocol: The wound healing process can stimulate de novo regeneration of HFs and SGs (reference 35). As such, the present inventors utilized this model to examine whether caspase-3 activation can drive SG development and maturation. Eight-week old mice were injected with DMSO, PAC-1 or PAC-1 along with Verteporfin for two days prior to wound infliction. Full thickness excision wounds (1 cm^2) were generated on the dorsalskins and skin samples were harvested 20 and 30 days post wound infliction. […] Importantly, YAP inhibition reversed these regenerative phenotypes, leading to a 10-fold reduction in the number of de novo formed SGs (FIGS. 17D and E).

XIAP [1] = assay: XIAP expression in treated mice; assay type: in vivo; settings: for XIAP levels: treated mice
Excerpt: In Drosophila, Yorkie (Yki) the homolog of YAP directly regulates the transcription of Death-associated inhibitor of apoptosis 1 (Diap1), which is the functional equivalent of XIAP [Fuchs, Y. & Steller, H. Programmed cell death in animal development and disease. Cell 147, 742-758 (2011); Zhang, L., et al. The TEAD/TEF family of transcription factor Scalloped mediates Hippo signaling in organ size control. Developmental cell 14, 377-387 (2008)]. Therefore, and without being bound by any theory, the present inventors hypothesized that in the SG, XIAP might be transcriptionally regulated by YAP to balance caspase-3 activity. […] Moreover, XIAP protein levels were increased upon caspase-3 activation with PAC-1, but this effect was abolished when YAP was inhibited (FIG. 29D).

YAP [2] = assay: YAP nuclear translocation and pYAP levels in EGFPhigh SGPZ cells; assay type: cell-based, mice; settings: immunoblot
Protocol: Cell culture—The HaCaT and HEK293 cell lines were cultured in DMEM medium supplemented with 10% FBS, 1% P/S (Pen/Strep) and 1% L-glutamine. Integrin α6^+CD34^+ HFSCs and integrin α6^+CD34^−EGFP^high SGPZ cells were isolated and cultured in HFSC media on sustaining J2 feeder cells. Serum was chelated for a calcium concentration of 50 μM. […] Cells were fixed in 4% PFA for 10 minutes for immunofluorescence analysis or harvested for protein or RNA extraction.
Given that Caspase-3 inhibition hindered cell number and proliferation in vitro the present inventors next examined whether this was mediated via YAP in EGFP^high SGPZ cells using K15^+ SGPZ cells. […] Similar findings as to effect of caspase-3 inhibition on YAP activation and proliferation were also obtained in HaCaT and Hek293E3 cells (FIGS. 3J-K, FIGS. 11B-F).

sebaceous gland (SG) = assay: Sebaceous gland (SG) size and cell proliferation in mice injected subcutaneously with caspase-3 inhibitors or activators; assay type: in vivo; settings: for SG size: eight week old mice; for SG size / cell proliferation / proliferative rates in the SG: subcutaneous injection for 7 days; for cell proliferation / proliferative rates in the SG / caspase-3 activation in the SG: mice; for caspase-3 activation in the SG: subcutaneous injection for seven days
Protocol: Immunofluorescence—Skins were embedded in OCT, frozen, sectioned, and fixed in 4% paraformaldehyde. Tail samples were treated with 5 mM EDTA for 4 hours at 37° C. to separate skin epithelium from dermis and fixed in formal saline for 2 hours at room temperature. Dorsal samples were treated with 5 mM EDTA for 6 hours at 37° C. to separate skin epithelium from dermis and fixed in formal saline for 1 hour at room temperature. Samples were blocked for 2 hours in Blocking buffer consisting of 10% Goat serum, 2% BSA, 0.2% Triton-X. Primary antibodies were diluted in blocking buffer and tissue/sections were incubated overnight at 4° C. Whole mounts or sections were washed at least 3 times with PBS. Secondary antibodies were incubated for 1 hour at room temperature followed by 4 washes with PBS. The following primary antibodies were used: YAP (Rabbit, 1:100, Cell Signalling, Mouse 1:100 Santa Cruz), pYAP (Rabbit, 1:100 Cell Signalling), α-E-Catenin (Rabbit, 1:100, Cell Signalling), Ki67 (Rabbit, 1:100, Abcam; Rat, 1:100, eBioscience), CD34 (Rat, 1:100, eBioscience), K15 (Mouse, 1:100, Thermo, Chicken, 1:1000, Abcam), Sox9 (Rabbit, 1:100, Millipore, Goat, 1:50, Santa Cruz). Cleaved-Caspase-3 (Rabbit, 1:100, Cell signalling), Phalloidin (1:250, Life Technologies). TUNEL was performed using ApopTag TdT (Millipore). […] Analysis was performed on Zeiss LSM 880 confocal microscope.

α-Catenin [3] = assay: Immunoblot of α-Catenin in EGFPhigh SGPZ cells; assay type: cell-based, mice; settings: extracts from EGFPhigh SGPZ cells
[4] = system: excision wounds (1 cm^2) on dorsal skin; assay: Wound repair of full thickness excision wounds on dorsal skin; assay type: in vivo, mice
Excerpt: For all wound repair experiments, mice were sedated with isofluorane. Mice were shaved with electric clippers and treated topically with a hair removal cream for a few minutes (Nair). Full-thickness excision wounds (1 cm^2) were generated on the dorsal skins and monitored for wound coverage. PWI, mice were individually housed. At the desired time PWI, mice were euthanized with CO2 and the wounded skins were harvested and either embedded in OCT or prepared for whole mounts as described above or for protein extraction.
Inhibition of caspase-3 impairs wound repair—Since YAP is known to play a chief role in regeneration (34), the present inventors investigated whether in vivo inhibition of Caspase-3 affects the wound repair dynamic by modulating YAP activity. […] Full thickness excision wounds (1.0 cm^2) were generated on the dorsalbacks and monitored for wound coverage. In control mice, three days post wound infliction (PWI) the wound size was reduced by 60% while in Ivachtin and z-DEVD-fink (SEQ ID NO: 71) treated mice, it was reduced by only 10% and 20%, respectively (FIG. 5A and FIG. 5B).

XIAP [5] = assay: XIAP protein and mRNA levels in EGFPhigh SGPZ cells; assay type: cell-based, mice
Protocol: RNA extraction, reverse transcription and real-time PCR (RT-PCR)—RNA was isolated using Trizol (Sigma) and up to 2 μg of RNA were subjected to cDNA synthesis (Applied Biosystems). Real time PCR was carried out using the PerfeCTa SYBR Green FastMix (Quanta), with gene-specific primers [RpLp0 […] (SEQ ID NO:50) and […] (SEQ ID NO:51); WTIP […] (SEQ ID NO:52) and […] (SEQ ID NO:53); ErbB4 […] (SEQ ID NO:54) and […] (SEQ ID NO:55); HOXC13 […] (SEQ ID NO:56) and […] (SEQ ID NO:57); HOXA5 […] (SEQ ID NO:58) and […] (SEQ ID NO:59)]. Amplicon levels were analysed in triplicate and quantitated relative to a standard curve comprising cDNA, and values normalized to levels of the housekeeping gene (Rplp0 or Gapdh). Reactions were: 3 minutes at 95° C., then 40 cycles of 10 seconds at 95° C. and 30 seconds at 60° C. with addition of melt curve step: 10 seconds at 95° C., and increments of 0.5° C. every 5 seconds between 65° C. to 95° C.
In Drosophila, Yorkie (Yki) the homolog of YAP directly regulates the transcription of Death-associated inhibitor of apoptosis 1 (Diap1), which is the functional equivalent of XIAP [Fuchs, Y. & Steller, H. Programmed cell death in animal development and disease. Cell 147, 742-758 (2011); Zhang, L., et al. The TEAD/TEF family of transcription factor Scalloped mediates Hippo signaling in organ size control. Developmental cell 14, 377-387 (2008)]. […]

α-Catenin [6] = assay: α-Catenin levels in vivo after caspase-3 inhibition or activation; set-up: species or system mice; settings: Western blot and immunofluorescence
Protocol: TUNEL was performed using ApopTag TdT (Millipore). […] Analysis was performed on Zeiss LSM 880 confocal microscope.
The levels of α-Catenin are known to be a critical factor in the regulation of YAP (27). In low confluent cells, diminished levels of α-Catenin serve as a mechanotransduction mechanism that instructs the nuclear translocation of YAP and drives proliferation (27, 33). […] The present inventors therefore examined the levels of α-Catenin both in vitro and in vivo, by employing both Western blot analysis and immunofluorescence.

YAP [7] = assay: Nuclear YAP and Ki67 in SGs of mice treated with PAC-1 and/or Verteporfin; assay type: in vivo
Excerpt: Therefore, the present inventors investigated whether SG homeostasis is governed by YAP activity in a caspase-3 dependent manner. For this aim the present inventors employed the YAP chemical inhibitor, Verteporfin, which is known to inhibit the interaction between YAP and TEAD in the nucleus and block transcriptional activity (reference 42). The present inventor administered Verteporfin either alone or in combination with the caspase-3 activator PAC-1.

human melanoma cells = assay: GFP-infected human melanoma cells injected into recipient mice; settings: mouse
Protocol: FIG. 15A—Melanoma cell were injected into recipient mice. […] Representative image 6 days after first treatment. FIG. 15B—quantification of tumor development indicates inhibition of tumor size in response to caspase-3 inhibition. FIG. 15C—Extracted tumors were analyzed for proliferation using the Ki67 marker and the presence of GFP^+ melanoma cells. FIG. 15D—Tumors treated with the caspase-3 activator ABT-199 result in a dramatic increase in tumor mass. […] Scale bars, 20 μm.
Examination of the effect of caspase-3 inhibition on melanoma formation in vivo—For this aim human melanoma cells were stably infected with GFP. Cells were then injected into to recipient mice and the effect of administrating caspase-3 inhibitors was monitored.

[8] = system: murine melanoma cell line B16F10; assay: B16F10 melanoma tumors in mice
Excerpt: FIG. 21E—Resected tumors stained for the proliferative marker Ki67 (red). […] Denotation: CP3, Caspase-3. ** (P<0.01), *** (P<0.001).
FIG. 22C—A histogram displaying quantification of tumor weight (mg) in treated (with Ivachtin) and non-treated (DMSO) animals. […] FIG. 22E—A histogram depicting quantification of Ki67^+ melanoma cells in vivo after treatment with Ivachtin. […] FIG. 22G—A histogram depicting quantification of TUNEL^+ melanoma cells. Denotation: CP3, Caspase-3. Scale bars: 10 μm (FIGS. 22D and 22F). * (P<0.05).

[9] = system: integrin α6+CD34+ HFSCs, HaCaT keratinocytes and Hek293E3 cells; assay: Expansion of other cell types treated with caspase-3 inhibitors; assay type: cell-based
Excerpt: In order to examine whether Caspase-3 affects the expansion of other cell types the present inventors isolated integrin α6^+CD34^+ HFSCs from second telogen mice.

B16F10 melanoma cells = B16F10 melanoma cells in vitro: growth, Ki67, pYAP, α-Catenin; assay type: cell-based
Excerpt: FIG. 23D—A histogram depicting quantifications of 501-A total cells number after treatment with Z-DEVD-fink (SEQ ID NO: 71). FIG. 23E—Images depicting B16F10 melanoma cells stained for Ki67 (red), active cleaved Caspase-3 (green) and nuclear counterstain DAPI (blue). […] Insets are zoom in on specific cells, Denotation: CP3, Caspase-3. Scale bars: 100 μm. ** (P<0.01), *** (P<0.001).
FIG. 24A—Images depicting B16F10 melanoma cells stained for pYAP (red). […] FIG. 24D—Images depicting B16F10 melanoma cells stained for α-Catenin (green). […] FIG. 24E—Immunoblot analysis of proteins isolated from B16F10 melanoma cells using antibodies against pYAP, α-Catenin and α-Tubulin as control.

[10] = system: integrin α6+CD34−EGFPhigh SGPZ cells; assay: Proliferation and expansion of isolated SGPZ cells treated with caspase-3 inhibitors; assay type: cell-based, mice
Protocol: Flow Cytometry—SGPZ cell isolation and FACS analysis were performed with K15-EGFP mice and CD34, integrin α6 and Sca1 antibodies. K15-GFP^high cells were isolated from ears and dorsal skin of 8-week old B6.Cg-Tg(Krt1-15-EGFP)2Cot/J mice.

## C=CCc1cccc(/C=N/NC(=O)CN2CCN(Cc3ccccc3)CC2)c1O [PAC-1]
De novo regenerated SGs; 20 and 30 days post wound infliction
  number of regenerated de novo SGs: striking increase
De novo regenerated SGs
  size and maturation of regenerated SGs: significantly larger and more developed SGs
XIAP [1]
  XIAP levels: increased
YAP [2]
  levels of pYAP: significantly decreased
Sebaceous gland (SG)
  SG size: significant increase
  cell proliferation / proliferative rates in the SG: significant increase
  caspase-3 activation in the SG: significant increase
α-Catenin [3]
  levels of full length α-Catenin: decreased levels
  ~90 kDa and ~85 kDa α-Catenin bands (cleaved): much higher levels
[4]; 7 days PWI
  number of nuclear YAP and Ki67 cells: increased number
[4]; PAC-1 injected daily subcutaneously
  wound healing compared with control: healed significantly faster than control
XIAP [5]; EGFPhigh SGPZ cells
  XIAP levels: increase in XIAP levels
α-Catenin [6]
  levels of α-Catenin: decreased levels
YAP [7]; PAC-1 alone
  numbers of nuclear YAP+/Ki67+ cells in SGs: higher numbers

## CC1(C)CCC(CN2CCN(c3ccc(C(=O)NS(=O)(=O)c4ccc(NCC5CCOCC5)c([N+](=O)[O-])c4)c(Oc4cnc5[nH]ccc5c4)c3)CC2)=C(c2ccc(Cl)cc2)C1 [ABT-199]
YAP [2]
  levels of pYAP: significantly decreased
Sebaceous gland (SG)
  SG size: significant increase
  cell proliferation / proliferative rates in the SG: significant increase
  caspase-3 activation in the SG: significant increase
Human melanoma cells
  tumor expansion by in vivo imaging: dramatically expanded
Human melanoma cells; in vivo
  tumor mass: two-fold increased
[8]; established B16F10 tumors
  tumor volume and weight: increased in volume and weight
[8]; mouse, in vivo
  proliferation (Ki67) in resected tumors: higher proliferation; also recorded: high levels of proliferation
  tumor size: dramatic increase in size
[8]; staining
  activated cleaved Caspase-3 in resected tumors: higher expression

## CC(=O)OCCN1C(=O)c2c(C)nc3ccc(S(=O)(=O)N4CCOCC4)cc3c2C1=O [Ivachtin]
Sebaceous gland (SG); 20 and 30 days post injection
  size of the SG, length, width and number of proliferating cells: returned to normal
Sebaceous gland (SG)
  SG size: decrease in SG size
  cell proliferation / proliferative rates in the SG: impaired proliferative rates; also recorded: significant decrease
[9]; daily treatment
  expansion of cells: impaired the expansion
[9]; not supplemented daily
  effect on expansion of cells: very limited effect
[4]; 5-7 days PWI
  levels of α-Catenin in wounded skin / invading keratinocytes: increased α-Catenin levels
[4]; 7 days PWI, Western blot
  cleavage of α-Catenin in wounded dorsalskin: impairment in cleavage
[4]; 12 days PWI
  number of nuclear YAP and Ki67 cells: decreased number
[4]; FIGS. 19A-F
  wound closure: significant decrease
[4]; Ivachtin, Verteporfin or both
  effect of combining caspase-3 and YAP inhibition on wound healing: no additive effect
[4]; daily subcutaneous injection
  healing at all time points: less efficient
[4]; three days post wound infliction, injected from 2 days prior to wounding
  wound size reduced by: 10%
B16F10 melanoma cells; compared to DMSO
  phosphorylated YAP-positive cells (pYAP+): significant increases
B16F10 melanoma cells; continuous presence of inhibitor
  growth of B16F10 melanoma cells: hindered
[10]; immunostaining, Ivachtin daily, five days
  number of cells positive for proliferative markers Ki67 and PCNA: three-fold decrease
[10]; not supplemented daily
  effect on cell number and colony formation: very limited effect
[10]; supplemented daily
  cellular expansion (proliferation and cell number): significant impairment
[8]; established B16F10 tumors
  tumor weight: decrease in tumor weight
[8]; mouse, in vivo
  YAP positive cells in resected tumors: significant decreases
  cell death by TUNEL assay in resected tumors: enhanced cell death
  proliferation (Ki67) in resected tumors: reduced expression; also recorded: attenuated proliferation
  tumor size: smaller tumors

## Verteporfin
De novo regenerated SGs
  size and maturation of regenerated SGs: did not develop into mature SGs
XIAP [1]; PAC-1 with Verteporfin
  PAC-1 induced increase of XIAP protein levels when YAP was inhibited: abolished
XIAP [1]
  XIAP levels: decrease in XIAP levels
[4]; PAC1 with VP
  increased repair by PAC1 under YAP inhibition: could be revered
XIAP [5]; RNA from EGFPhigh SGPZ cells
  XIAP mRNA levels, lower compared to control cells: 2 fold
YAP [7]; Verteporfin in combination with PAC-1
  proliferative effect of PAC-1 (Ki67+ cells in SGs): able to overcome the positive proliferative effect of PAC-1
YAP [7]; Verteporfin treatment
  nuclear translocation of YAP: did not affect
